pKd: −log10 of the molar value. Read-outs that look alike come from different tables or passages of the source.
Key:
JAK2 kinase domain (JH1) = JAK2 kinase domain (JH1) (Homo sapiens (Human), UniProt O60674); test: JAK2 Radioactive Kinase Assay; assay type: biochemical; conditions: for inhibition at 10 µM: read-out: JAK2 JH1% Inhibition @ 10 μM
Procedure, shortened: (§1)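 Compounds were tested at a single concentration of 10 μM in a radiometric kinase format against each isolated kinase domain. Activity is reported as percent inhibition at that concentration.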

Tyk2 kinase domain (DH1) = Tyk2 kinase domain (DH1) (Homo sapiens (Human), UniProt P29597); test: Tyk2 Radioactive Kinase Assay; assay type: biochemical; conditions: for inhibition at 10 µM: read-out: Tyk2 JH1% Inhibition @ 10 μM
Tyk2 kinase domain (DH1), sequence (P29597 897-1176): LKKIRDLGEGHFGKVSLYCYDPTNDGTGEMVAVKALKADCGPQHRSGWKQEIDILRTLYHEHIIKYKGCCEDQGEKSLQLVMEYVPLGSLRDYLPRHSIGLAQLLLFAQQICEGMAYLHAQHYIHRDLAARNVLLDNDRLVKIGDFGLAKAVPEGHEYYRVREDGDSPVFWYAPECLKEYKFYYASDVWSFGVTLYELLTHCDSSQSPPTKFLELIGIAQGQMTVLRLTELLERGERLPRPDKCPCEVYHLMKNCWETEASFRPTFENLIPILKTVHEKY
Procedure, shortened: as §1

[1] = target: human TYK2 (JH2domain-pseudokinase) (Homo sapiens (Human), UniProt P29597); test: TYK2 JH2 Domain Binding Assay (KINOMEscan)
human TYK2 (JH2domain-pseudokinase), sequence (P29597 556-888): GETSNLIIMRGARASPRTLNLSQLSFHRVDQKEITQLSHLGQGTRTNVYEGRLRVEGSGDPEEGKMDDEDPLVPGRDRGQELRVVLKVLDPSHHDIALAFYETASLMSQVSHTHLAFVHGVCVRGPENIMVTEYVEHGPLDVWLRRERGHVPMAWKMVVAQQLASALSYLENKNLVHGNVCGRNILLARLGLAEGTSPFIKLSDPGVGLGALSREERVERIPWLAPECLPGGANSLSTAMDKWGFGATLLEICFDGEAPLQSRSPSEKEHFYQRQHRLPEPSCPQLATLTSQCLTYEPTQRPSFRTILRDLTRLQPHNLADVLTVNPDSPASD
Procedure, shortened: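 Displacement of a DNA-tagged TYK2 JH2 fusion (human, aa G556–D888, HEK293 extract, <0.1 nM) from ligand-coated beads over 1 h at RT; binding buffer PBS/0.05% Tween 20/10 mM DTT/0.1% BSA.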

JAK2 kinase domain (JH1), sequence (O60674 849-1124): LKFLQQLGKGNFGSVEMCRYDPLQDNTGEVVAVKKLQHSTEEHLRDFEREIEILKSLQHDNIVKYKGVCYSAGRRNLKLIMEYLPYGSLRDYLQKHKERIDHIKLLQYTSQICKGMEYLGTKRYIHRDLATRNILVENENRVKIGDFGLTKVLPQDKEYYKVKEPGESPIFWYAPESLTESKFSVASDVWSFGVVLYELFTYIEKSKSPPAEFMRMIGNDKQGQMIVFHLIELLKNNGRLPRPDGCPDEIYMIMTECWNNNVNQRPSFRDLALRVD

Structure (SMILES)	pKd [1]	inhibition at 10 µM (JAK2 kinase domain (JH1); compound at 10 μM, ATP 10 μM)	inhibition at 10 µM (Tyk2 kinase domain (DH1); compound at 10 μM, ATP 10 μM)	inhibition at 10 µM (JAK2 kinase domain (JH1); 10 μM compound, 10 μM ATP)	inhibition at 10 µM (Tyk2 kinase domain (DH1); 10 μM compound, 10 μM ATP)	other results
CNc1cc(Nc2cccc([C@H]3CCCOC3)n2)nc2c(C(=O)N[C@H]3COC[C@H]3O)cnn12 [I-774]	8.00 to 9.00	–	–	–	–	JAK2 JH1% Inhibition @ 10 μM (JAK2 kinase domain (JH1); compound at 10 μM, ATP 10 μM): A (percent inhibition at 10 μM lower than 50); Tyk2 JH1% Inhibition @ 10 μM (Tyk2 kinase domain (DH1); compound at 10 μM, ATP 10 μM): A (percent inhibition at 10 μM lower than 50)
CNc1cc(Nc2cccc([C@H]3CCCOC3)n2)nc2c(C(=O)N[C@@H]3COC[C@@H]3O)cnn12 [I-775]	> 9.70	–	–	–	–	JAK2 JH1% Inhibition @ 10 μM (JAK2 kinase domain (JH1); compound at 10 μM, ATP 10 μM): A (percent inhibition at 10 μM lower than 50); Tyk2 JH1% Inhibition @ 10 μM (Tyk2 kinase domain (DH1); compound at 10 μM, ATP 10 μM): A (percent inhibition at 10 μM lower than 50)
CNc1cc(-c2cn(CCN3CCOCC3)c3ncccc23)nc2c(C(=O)N[C@H]3CC[C@H]3O)cnn12 [I-778]	> 9.70	< 50%	< 50%	–	–	–
CNc1cc(-c2cn(CCN3CCOCC3)c3ncccc23)nc2c(C(=O)N[C@@H]3CC[C@@H]3O)cnn12 [I-779]	9.00 to 9.70	–	–	–	–	JAK2 JH1% Inhibition @ 10 μM (JAK2 kinase domain (JH1); compound at 10 μM, ATP 10 μM): A (percent inhibition at 10 μM lower than 50); Tyk2 JH1% Inhibition @ 10 μM (Tyk2 kinase domain (DH1); compound at 10 μM, ATP 10 μM): A (percent inhibition at 10 μM lower than 50)
CNc1cc(Nc2cccn([C@@H]3CCCOC3)c2=O)nc2c(C(=O)N[C@H]3CCC[C@H](O)C3)cnn12 [I-781]	> 9.70	–	–	–	–	JAK2 JH1% Inhibition @ 10 μM (JAK2 kinase domain (JH1); compound at 10 μM, ATP 10 μM): A (percent inhibition at 10 μM lower than 50); Tyk2 JH1% Inhibition @ 10 μM (Tyk2 kinase domain (DH1); compound at 10 μM, ATP 10 μM): A (percent inhibition at 10 μM lower than 50)
CNc1cc(Nc2cccn([C@H]3CCCOC3)c2=O)nc2c(C(=O)N[C@H]3COC[C@H]3O)cnn12 [I-784]	< 8.00	–	–	–	–	JAK2 JH1% Inhibition @ 10 μM (JAK2 kinase domain (JH1); compound at 10 μM, ATP 10 μM): A (percent inhibition at 10 μM lower than 50); Tyk2 JH1% Inhibition @ 10 μM (Tyk2 kinase domain (DH1); compound at 10 μM, ATP 10 μM): A (percent inhibition at 10 μM lower than 50)
CNc1cc(Nc2cccn([C@H]3CCCOC3)c2=O)nc2c(C(=O)N[C@@H]3COC[C@@H]3O)cnn12 [I-785]	> 9.70	< 50%	< 50%	–	–	–
CNc1cc(Nc2cccn([C@@H]3CCCOC3)c2=O)nc2c(C(=O)N[C@@H]3COC[C@@H]3O)cnn12 [I-787]	< 8.00	< 50%	< 50%	–	–	–
CNc1cc(Nc2cccn([C@@H]3C[C@H]3F)c2=O)nc2c(C(=O)NC3CC3)cnn12 [I-788]	> 9.70	< 50%	< 50%	–	–	–
CNc1cc(-c2cn(CCN3CCOCC3)c3ncccc23)nc2c(C(=O)N[C@@H]3CC[C@H]3O)cnn12 [I-792, N-(2-hydroycyclobutyl)-7-(methylamino)-5-(1-(2-morpholinoethyl)-1H-pyrrolo[2,3-b]pyridine-3-yl)pyrazolo[1,5-a]pyrimidine-3-carboxamide]	> 9.70	< 50%	< 50%	–	–	–
CNc1cc(-c2cn(CCN3CCCCC3)c3ncccc23)nc2c(C(=O)N[C@@H]3CC[C@@H]3O)cnn12 [I-793]	> 9.70	< 50%	< 50%	–	–	–
CNc1cc(-c2cn(CCN3CCCCC3)c3ncccc23)nc2c(C(=O)N[C@@H]3CC[C@H]3O)cnn12 [I-794]	> 9.70	< 50%	< 50%	–	–	–
CNc1cc(Nc2cccn([C@H]3CCC[C@@H](OC)C3)c2=O)nc2c(C(=O)N[C@@H]3C[C@@H]3F)cnn12 [I-795]	> 9.70	< 50%	< 50%	–	–	–
CNc1cc(-c2cn(CCN3CCOCC3)c3ncccc23)nc2c(C(N)=O)cnn12 [I-796, 7-(methylamino)-5-(1-(2-morpholinoethyl)-1H-pyrrolo[2,3-b]pyridin-3-yl)pyrazolo[1,5-a]pyrimidine-3-carboxamide]	> 9.70	< 50%	< 50%	–	–	–
CNc1cc(-c2cn(CCN3CCCCC3)c3ncccc23)nc2c(C(N)=O)cnn12 [I-797]	> 9.70	< 50%	< 50%	–	–	–
CNc1cc(Nc2cc(Cl)cn([C@@H]3CCCOC3)c2=O)nc2c(C(=O)N[C@H]3[C@@H]4COC[C@@H]43)cnn12 [I-799]	9.00 to 9.70	< 50%	< 50%	–	–	–
CNc1cc(Nc2cc(Cl)cn([C@H]3CCCOC3)c2=O)nc2c(C(=O)N[C@H]3[C@@H]4COC[C@@H]43)cnn12 [I-800]	9.00 to 9.70	< 50%	< 50%	–	–	–
CNc1cc(Nc2cccn([C@H]3CC[C@@H]3O)c2=O)nc2c(C(=O)NC3CC3)cnn12 [I-801]	9.00 to 9.70	< 50%	< 50%	–	–	–
CNc1cc(Nc2cccn([C@H]3CCCOC3)c2=O)nc2c(C(=O)N[C@@H]3CC[C@@H]3O)cnn12 [I-804]	9.00 to 9.70	–	–	–	–	JAK2 JH1% Inhibition @ 10 μM (JAK2 kinase domain (JH1); compound at 10 μM, ATP 10 μM): A (percent inhibition at 10 μM lower than 50); Tyk2 JH1% Inhibition @ 10 μM (Tyk2 kinase domain (DH1); compound at 10 μM, ATP 10 μM): A (percent inhibition at 10 μM lower than 50)
CNc1cc(Nc2cccn(-c3ccccn3)c2=O)nc2c(C(=O)N[C@@H]3CC[C@@H]3O)cnn12 [I-806]	9.00 to 9.70	–	–	–	–	JAK2 JH1% Inhibition @ 10 μM (JAK2 kinase domain (JH1); compound at 10 μM, ATP 10 μM): A (percent inhibition at 10 μM lower than 50); Tyk2 JH1% Inhibition @ 10 μM (Tyk2 kinase domain (DH1); compound at 10 μM, ATP 10 μM): A (percent inhibition at 10 μM lower than 50)
CNc1cc(-c2cn(CCN3CCOCC3)c3ncccc23)nc2c(C(=O)NCC3(CO)CC3)cnn12 [I-807, N-((1-(hydroxymethyl)cyclopropyl)methyl)-7-(methylamino)-5-(1-(2-morpholinoethyl)-1H-pyrrolo[2,3-b]pyridin-3-yl)pyrazolo[1,5-a]pyrimidine-3-carboxamide]	9.00 to 9.70	< 50%	< 50%	–	–	–
CNc1cc(Nc2cccn(-c3cnn(C)c3F)c2=O)nc2c(C(=O)NC3CC3)cnn12 [I-808]	> 9.70	–	–	< 50%	< 50%	–

More lines, main results first:

pKd [1]	inhibition at 10 µM (JAK2 kinase domain (JH1); compound at 10 μM, ATP 10 μM)	inhibition at 10 µM (Tyk2 kinase domain (DH1); compound at 10 μM, ATP 10 μM)	inhibition at 10 µM (JAK2 kinase domain (JH1); 10 μM compound, 10 μM ATP)	inhibition at 10 µM (Tyk2 kinase domain (DH1); 10 μM compound, 10 μM ATP)	Structure (SMILES)	other results
9.00 to 9.70	–	–	–	–	CNc1cc(Nc2cccn(-c3cnco3)c2=O)nc2c(C(=O)N[C@H]3CC[C@H]3O)cnn12 [I-809]	JAK2 JH1% Inhibition @ 10 μM (JAK2 kinase domain (JH1); 10 μM compound, 10 μM ATP): A (percent inhibition at 10 μM lower than 50); Tyk2 JH1% Inhibition @ 10 μM (Tyk2 kinase domain (DH1); 10 μM compound, 10 μM ATP): A (percent inhibition at 10 μM lower than 50)
> 9.70	–	–	< 50%	< 50%	CNc1cc(Nc2cccn([C@H]3[C@@H]4COC[C@@H]43)c2=O)nc2c(C(=O)NC3CC3)cnn12 [I-810]	–
8.00 to 9.00	–	–	< 50%	< 50%	CNc1cc(Nc2cccn(-c3cccnc3C)c2=O)nc2c(C(=O)NC3CC3)cnn12 [I-812]	–
9.00 to 9.70	–	–	< 50%	< 50%	CNc1cc(Nc2cccn(-c3cccnc3C)c2=O)nc2c(C(=O)N[C@@H]3C[C@@H]3F)cnn12 [I-813]	–
9.00 to 9.70	–	–	< 50%	< 50%	CNc1cc(-c2cn(CCN3CCOCC3)c3ncccc23)nc2c(C(=O)NCC(C)(C)CO)cnn12 [I-818, N-(3-hydroxy-2,2-dimethylpropyl)-7-(methylamino)-5-(1-(2-morpholinoethyl)-1H-pyrrolo[2,3-b]pyridin-3-yl)pyrazolo[1,5-a]pyrimidine-3-carboxamide]	–
> 9.70	–	–	< 50%	< 50%	CNc1cc(Nc2cccn([C@@H]3CCC[C@@H](O)C3)c2=O)nc2c(C(=O)NC3CC3)cnn12 [I-822]	–
9.00 to 9.70	–	–	< 50%	< 50%	CNc1cc(Nc2cccn([C@H]3CCN(C)CC3(F)F)c2=O)nc2c(C(=O)NC3CC3)cnn12 [I-823]	–
9.00 to 9.70	–	–	< 50%	< 50%	CNc1cc(Nc2cccn([C@@H]3CCN(C)CC3(F)F)c2=O)nc2c(C(=O)NC3CC3)cnn12 [I-824]	–
> 9.70	–	–	< 50%	< 50%	CNc1cc(Nc2cccn([C@H]3CC[C@H](OC)CC3)c2=O)nc2c(C(=O)NC[C@@H](C)CO)cnn12 [I-830]	–
> 9.70	–	–	< 50%	< 50%	CNc1cc(Nc2cccn([C@H]3CC[C@H](OC)CC3)c2=O)nc2c(C(=O)N[C@@H]3COC[C@@H]3O)cnn12 [I-831]	–
8.00 to 9.00	–	–	< 50%	< 50%	CNc1cc(Nc2cccn([C@H]3CC[C@H](OC)CC3)c2=O)nc2c(C(=O)N[C@H]3COC[C@H]3O)cnn12 [I-832]	–
< 8.00	–	–	< 50%	< 50%	CNc1cc(Nc2cccc3ocnc23)nc2c(C(=O)N[C@@H]3COC[C@@H]3O)cnn12 [I-833]	–
9.00 to 9.70	–	–	< 50%	< 50%	CNc1cc(-c2cn(CCN3CCOCC3)c3ncccc23)nc2c(C(=O)N[C@H]3CC[C@@H]3O)cnn12 [I-836]	–
> 9.70	–	–	< 50%	< 50%	CNc1cc(-c2cn(CCN3CCCCC3)c3ncccc23)nc2c(C(=O)N[C@H]3CC[C@@H]3O)cnn12 [I-838]	–
8.00 to 9.00	–	–	< 50%	< 50%	CNc1cc(-c2cn(C(C)C)c3ncccc23)nc2c(C(=O)N[C@H]3COC[C@H]3O)cnn12 [I-841, N-((3S,4S)-4-hydroxytetrahydrofuran-3-yl)-5-(1-isopropyl-1H-pyrrolo[2,3-b]pyridin-3-yl)-7-(methylamino)pyrazolo[1,5-a]pyrimidine-3-carboxamide]	–
> 9.70	–	–	< 50%	< 50%	CNc1cc(Nc2cccn(C3CCN(CCF)CC3)c2=O)nc2c(C(=O)N[C@H]3CC[C@H]3O)cnn12 [I-844]	–
> 9.70	–	–	< 50%	< 50%	CNc1cc(Nc2cccn(C3CCN(CCF)CC3)c2=O)nc2c(C(=O)N[C@@H]3CC[C@H]3O)cnn12 [I-845]	–

Source: patent publication US10508120B2, “TYK2 inhibitors and uses thereof” (Nimbus Lakshmi, Inc., priority 2017, dated 2019)
